Consider nine molecules from US20230081426A1, “COMPOUNDS AND METHODS FOR KRAS MODULATION AND INDICATIONS THEREFOR” (Plexxikon Inc., priority 2020, published 2023).

In test [1] the target is T1, G12V-mutant human KRAS (amino acid residues 1-188) (Homo sapiens, UniProt P01116, G12V).
T1 construct: G12V-mutant human KRAS (amino acid residues 1-188) with FLAG tag was purified from E. coli; made in house; host or cells: E. coli
Kind of test: KRAS Binding Competition Assay (AlphaScreen; biotinylated KRpep-2d analogue), G12V. To be noted: geometric mean, read-out: KRAS GMean IC50 (uM) MUTATION: G12V. As for the experimental part:
Compound binding disrupts the interaction of KRpep-2d with KRAS, leading to a decrease in Alpha signal.
All assay components were prepared in 20 mM HEPES (pH 7.5), 100 mM NaCl, 5 mM MgCl2, 0.01% Tween-20, and 0.01% BSA. Biotinylated analogues of KRpep-2d were custom synthesized. The binding competition assays were performed using 10 nM of mutant KRAS and 10 nM of biotinylated KRpep-2d analogue. 19 μL of KRAS protein and 4 μL of biotinylated KRpep-2d were added to the wells of a 384-well plate containing 1 μL of various concentrations of test compound or DMSO vehicle. 16 wells containing KRAS, biotinylated KRpep-2d, and 5% DMSO served as high controls. 16 wells containing KRAS only and 5% DMSO served as low controls. Binding reactions were incubated for 1 hour at 25° C., then Anti-Flag Acceptor and Streptavidin Donor Alpha beads were added at a final concentration of 10 μg/mL for an additional hour at room temperature. Alpha signal was read out on a Perkin Elmer Envision HTS instrument. The percentage inhibition at individual compound concentrations relative to high and low controls was calculated. The data were analyzed by using nonlinear regression to generate IC50 values.
For orientation: Bead proximity is the source of the signal in Alpha formats.

For test [2], the target named is T2, G12D-mutant human KRAS (amino acid residues 1-188) (Homo sapiens, UniProt P01116, G12D).
T2 construct: G12D or G12C-mutant human KRAS (amino acid residues 1-188) with FLAG tag; made in house; host or cells: E. coli
Kind of test: KRAS Binding Disruption Assay (AlphaScreen; biotinylated KRpep-2d analogue or RAF1-RBD), G12D. To be noted: KRAS G12D; geometric mean; read-out: KRAS GMean IC50 (uM) MUTATION: G12D. In a few lines: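 Displacement format with mutant KRAS, biotinylated KRpep-2d analogue or RAF1-RBD (5-20 nM each) at pH 7.5 with 5 mM MgCl2.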

One may read the IC50 as the concentration needed to halve the response being measured. Consider `CN1CCC[C@H]1COc1nc(N2CC3COCC(C2)N3C(=O)NC2CCOC2)c2ccc(-c3cc(O)cc4ccccc34)c(F)c2n1` (mixture of isomers) [P-0251, rac-7-(8-fluoro-7-(3-hydroxynaphthalen-1-yl)-2-(((R)-1-methylpyrrolidin-2-yl)methoxy)quinazolin-4-yl)-N-(tetrahydrofuran-3-yl)-3-oxa-7,9-diazabicyclo[3.3.1]nonane-9-carboxamide], for which the half-inhibitory concentration (IC50) in test [1] and in test [2] was 0.0001 to 10 µM in each case.

Turning to `CN1CCC[C@H]1COc1nc(N2CC3CCC(C2)N3)c2ccc(N3CC(O)Cc4ccccc43)cc2n1` (mixture of isomers) [P-0256, 1-(4-((1R,5S)-3,8-diazabicyclo[3.2.1]octan-3-yl)-2-(((RS)-1-methylpyrrolidin-2-yl)methoxy)quinazolin-7-yl)-1,2,3,4-tetrahydroquinolin-3-ol], the IC50 in test [1] and in test [2] was 10 to 100 µM each time.

Turning to `CN1CCC[C@H]1COc1nc(N2CC3CCC(C2)N3C(=O)CCCN2CCOCC2)c2ccc(-c3cc(O)cc4ccccc34)c(F)c2n1` (racemic) [P-0429, 1-((1R,5S)-3-(8-fluoro-7-(3-hydroxynaphthalen-1-yl)-2-(((RS)-1-methylpyrrolidin-2-yl)methoxy)quinazolin-4-yl)-3,8-diazabicyclo[3.2.1]octan-8-yl)-4-morpholinobutan-1-one], the 50% inhibitory concentration (IC50) fell in the range of 10 to 100 µM in test [1] and 0.0001 to 10 µM in test [2].

`Oc1cc(-c2ccc3c(N4C[C@H]5CC[C@@H](C4)N5)nc(OCC45CCCN4CCC5)nc3c2Cl)c2ccccc2c1` [P-0003, 4-(4-((1R,5S)-3,8-diazabicyclo[3.2.1]octan-3-yl)-8-chloro-2-((tetrahydro-1H-pyrrolizin-7a(5H)-yl)methoxy)quinazolin-7-yl)naphthalen-2-ol]: the 50% inhibitory concentration (IC50) in test [1] and in test [2] was 0.0001 to 10 µM throughout.

Regarding `CN1CCC[C@H]1CNc1nc(N2C[C@H]3CC[C@@H](C2)N3)c2ccc(-c3cc(O)cc4ccccc34)cc2n1` [P-0016, 4-(4-((1R,5S)-3,8-diazabicyclo[3.2.1]octan-3-yl)-2-((((S)-1-methylpyrrolidin-2-yl)methyl)amino)quinazolin-7-yl)naphthalen-2-ol], the IC50 in test [1] is 10 to 100 µM; in test [2], 0.0001 to 10 µM.

As for `Cc1ccc2[nH]ncc2c1-c1c(Cl)cc2c(N3C[C@H]4CC[C@@H](C3)N4)nc(OC[C@@H]3CCCN3C)nc2c1F` [P-0028, 4-((1R,5S)-3,8-diazabicyclo[3.2.1]octan-3-yl)-6-chloro-8-fluoro-7-(5-methyl-1H-indazol-4-yl)-2-(((S)-1-methylpyrrolidin-2-yl)methoxy)quinazoline], the concentration for half-maximal inhibition (IC50) in test [1] lay within 100 to 1000 µM; in test [2], 0.0001 to 10 µM.

In the case of `O=C(NCCN1CCOCC1)N1[C@@H]2CC[C@H]1CN(c1nc(OCC34CCCN3CCC4)nc3cc(-c4cc(O)cc5ccccc45)ccc13)C2` [P-0029, (1R,5S)-3-(7-(3-hydroxynaphthalen-1-yl)-2-((tetrahydro-1H-pyrrolizin-7a(5H)-yl)methoxy)quinazolin-4-yl)-N-(2-morpholinoethyl)-3,8-diazabicyclo[3.2.1]octane-8-carboxamide], the IC50 in test [1] and in test [2] was 0.0001 to 10 µM each time.

Consider `CN1CCC[C@H]1COc1nc(N2CC3CC(C2)N3)c2cc(Cl)c(-c3cc(O)cc4ccccc34)c(F)c2n1` [P-0031, 4-(4-(3,6-diazabicyclo[3.1.1]heptan-3-yl)-6-chloro-8-fluoro-2-(((S)-1-methylpyrrolidin-2-yl)methoxy)quinazolin-7-yl)naphthalen-2-ol], for which the IC50 fell in the range of 10 to 100 µM in test [1] and 0.0001 to 10 µM in test [2].

As for `CN1CCC[C@H]1COc1nc(N2C[C@@H]3C[C@H]2CN3)c2cc(Cl)c(-c3cc(O)cc4ccccc34)c(F)c2n1` [P-0042, 4-(4-((1S,4S)-2,5-diazabicyclo[2.2.1]heptan-2-yl)-6-chloro-8-fluoro-2-(((S)-1-methylpyrrolidin-2-yl)methoxy)quinazolin-7-yl)naphthalen-2-ol], the IC50 in test [1] was 10 to 100 µM; in test [2] it was 0.0001 to 10 µM.
